Experimental data as given in patent US8119619B2, “Pregnane steroids and their use in the treatment of CNS disorders” (Umecrine AB, priority 2001, dated 2012).
“And” between values parts separate entries of the source, which are not always exact repeats. Identical values can stand only once. “Also recorded” adds a separate entry of the source.

How the values were obtained:
GABA-A receptor = assay: Cortical tissue homogenate study: radioactive chloride uptake into vesicles through the GABA-A receptor; format: biochemical, rat; details: for Mean % (SEM) chloride uptake relative to only 10 uM GABA: 10 μM GABA alone = 100%, 3alpha-hydroxy-5alpha-pregnan-20-one 0-3000 nM + 10 μM GABA + 30 μM interacting steroid, reference steroid tested without blocker; for Within group change from 0 nM 3alpha-hydroxy-5alpha-pregnan-20-one: doses of 3alpha-hydroxy-5alpha-pregnan-20-one: 1=0, 2=50, 3=100, 4=150, 5=200, 6=1000, 7=3000 nM, + 10 μM GABA + 30 μM steroid
Description: In these studies cortical tissue from mature male rats was homogenized in buffer. As a result of this procedure a suspension of small vesicles was formed, said vesicles having GABA-A receptors on their surface. When radioactive chloride is added to this suspension, a certain amount will enter the vesicles. This amount is related to how much open the GABA-A receptor is. Drugs that open the receptor will increase the amount of chloride in the vesicles in relation to the dosage of the drug. Similarly, drugs that close the GABA-A receptor will decrease the amount of chloride moving into the vesicles. The labeled chloride outside of the vesicles was washed away and separated from the chloride inside. The amount of radioactively labeled chloride inside the vesicles was thereafter measured in a fluid scintillator and a curve drawn.
At each experiment, a control of increasing dosages of GABA was used to ensure that the tissue sample is working properly. A second control was used to enhance the effect of 10 μM of GABA by adding increasing dosages 3alpha-hydroxy-5alpha-pregnan-20-one.
The effect is shown as a percentage change from the uptake with only 10 μM GABA and no 3 alpha-hydroxy-5alpha-pregnan-20-one in this case given the measure 100%.
In all cases 3alpha-hydroxy-5alpha-pregnan-20-one is given in increasing dosages 1=0, 2=50, 3=100, 4=150, 5=200, 6=1000, 7=3000 nM+10 μM GABA+30 μM of interacting Steroid. H=high, S=significant, NS=non significant. Statistical testing made with repeated measures ANOVA followed post hoc with lest significant difference test.

rats = assay: Morris water maze learning model; format: in vivo, rat; details: for Learning to find the hidden platform (latency), substance given alone: i.v. daily for 6 days, four trials per day, UC1011 20 mg/kg or 3alpha-hydroxy-5alpha-pregnan-20-one 2 mg/kg, UC1011 vs 3alpha group p<0.05 day 3-6
From the text: Animal studies using the Morris water-maze model have been performed. In the Morris water-maze model, the learning capacity of the test animals can be observed. The test animal, usually a rat, is placed in a container with water, having a platform at one location. This platform is slightly under the surface of the water, and the rat must swim until it finds the platform. In following test sessions the rat will learn were the platform is by looking at markings on the wall of the room. It is known, that the learning process is negatively influenced by the administration of CNS depressing 3alpha-hydroxy-pregnan-steroids. (Johansson L M, Birzniece V, Lindblad C., Olsson T. and Bäckström T (2002) Allopregnanolone inhibits learning in the Morris water maze. Brain Res 934, 125-131).
The results (FIG. 3) indicate, that this negative effect is removed or alleviated through the administration of a compound according to the present invention. The experiments were conducted using 3alpha-hydroxy-pregnan-20-one as learning disturbing substance (CAS no. 516-54-1, Table 1) and 3beta,20beta-dihydroxy-5alpha-pregnane, UC1011, (CAS 516-53-9, Table 2 and 3) as blocking substance. Rats (n=46) where injected (i.v) daily with 3beta,20beta-dihydroxy-5alpha-pregnane, UC1011 20 mg/kg (n=14), 3alpha-hydroxy-5alpha-pregnan-20-one 2 mg/kg (n=14), 3alpha-hydroxy-5alpha-pregnan-20-one+3beta,20beta-dihydroxy-5alpha-pregnane, UC1011 2:20 mg/kg (n=14), or vehicle (n=4) Animals were given four swim trials daily with maximal swimming time 120 second for each trial. The rats started to swim 8 minute after the 3alpha-hydroxy-5alpha-pregnan-20-one injection for 6 days. The performance of rats was monitored with a video camera and data was analyzed with analysis of variance (ANOVA) followed by post hoc test.

In the case of C[C@]12CC[C@H](O)C[C@H]1CC[C@@H]1[C@@H]2CC[C@]2(C)[C@@H](C(=O)CO)CC[C@@H]12 [UC1015, 3beta,21-dihydroxy-5beta-pregnan-20-one], the “Mean % (SEM) chloride uptake relative to only 10 uM GABA” value (GABA-A receptor) is reported as 102.7(22) % and the “Within group change from 0 nM 3alpha-hydroxy-5alpha-pregnan-20-one” value (“Within group change” for short) (GABA-A receptor) is reported as “All dosages = NS”.
In the case of CC(=O)[C@H]1CC[C@H]2[C@@H]3CC[C@H]4C[C@@H](O)CC[C@]4(C)[C@H]3C(=O)C[C@]12C [UC1017, 3beta hydroxy-5alpha-pregnan-11,20-dione], the “Within group change” value (GABA-A receptor) is reported as “All dosages = NS”.
For CC(O)C1CCC2C3CCC4CC(O)CCC4(C)C3CCC12C (stereo not drawn) [UC1011, 3beta,20beta-dihydroxy-5alpha-pregnane], the “Mean % (SEM) chloride uptake relative to only 10 uM GABA” value (GABA-A receptor) was 81.9(19) %, the “Effect on the increase in chloride uptake induced by 3alpha-hydroxy-5alpha-pregnan-20-one (FIG. 2)” value (GABA-A receptor; 30 μM blocker, 10 μM GABA, increasing 3alpha-hydroxy-5alpha-pregnan-20-one) was “blocked” and the “Within group change” value (GABA-A receptor) was “All dosages = NS”. The “Learning to find the hidden platform (latency), blocker given with 3alpha-hydroxy-5alpha-pregnan-20-one” value (rats; 3alpha-hydroxy-5alpha-pregnan-20-one + UC1011 2:20 mg/kg i.v. daily for 6 days, compared with the 3alpha-hydroxy-5alpha-pregnan-20-one group, p<0.05 day 4-6, 20 mg/kg) was “lower latency time; also recorded: start to learn significantly on the 4th day of training” and the “Learning to find the hidden platform (latency), substance given alone” value (from here on “Learning … substance given alone”) (rats) was “learned to find the platform as quickly as the control group; also recorded: learn to find the platform on the tired day of training”.
In the case of “3beta-hydroxy-5alpha-pregnan-20-one-sulfate, sodium salt [UC1016]”, the “Mean % (SEM) chloride uptake relative to only 10 uM GABA” value (GABA-A receptor) is reported as 109.8(19) % and the “Within group change” value (GABA-A receptor) is reported as “All dosages = NS”.
For CC(=O)[C@H]1CC[C@H]2[C@@H]3CC[C@@H]4C[C@@H](O)CC[C@]4(C)[C@H]3CC[C@]12C [UC1014, 3beta-hydroxy-5beta-pregnan 20-one], the “Mean % (SEM) chloride uptake relative to only 10 uM GABA” value (GABA-A receptor) was 92.9(22) % and the “Within group change” value (GABA-A receptor) was “All dosages NS”.
In the case of CC(=O)[C@H]1CC[C@H]2[C@@H]3CC=C4C[C@@H](OS(=O)(=O)[O-])CC[C@]4(C)[C@H]3CC[C@]12C.[Na+] [UC1018, 3beta-hydroxy-delta5-pregnen-20-one-sulfate, sodium salt], the “Mean % (SEM) chloride uptake relative to only 10 uM GABA” value (GABA-A receptor) is reported as 64.7(23) % and the “Within group change” value (GABA-A receptor) is reported as “All dosages = NS”.
In the case of C[C@H](O)[C@H]1CC[C@H]2[C@@H]3CC[C@@H]4C[C@@H](O)CC[C@]4(C)[C@H]3CC[C@]12C [UC1013, 3beta,20alpha-dihydroxy-5beta-pregnane], the “Mean % (SEM) chloride uptake relative to only 10 uM GABA” value (GABA-A receptor) is reported as 84.2(22) % and the “Within group change” value (GABA-A receptor) is reported as “All dosages = NS”.
In the case of CC(=O)[C@H]1CC[C@H]2[C@@H]3CC[C@H]4C[C@@H](O)CC[C@]4(C)[C@H]3CC[C@]12C [UC1010, 3beta-hydroxy-5alpha-pregnan-20-one], the “Mean % (SEM) chloride uptake relative to only 10 uM GABA” value (GABA-A receptor) is reported as 104.4(13) % and the “Within group change” value (GABA-A receptor) is reported as “Dos 7 = S H; also recorded: The rest = NS”.
CC(=O)[C@H]1CC[C@H]2[C@@H]3CC[C@H]4C[C@H](O)CC[C@]4(C)[C@H]3CC[C@]12C [3alpha-hydroxy-5alpha-pregnan-20-one, reference compound] was tested, and the “Mean % (SEM) chloride uptake relative to only 10 uM GABA” value (GABA-A receptor) was 167.7% and 167.7(13) %, the “Within group change” value (GABA-A receptor) was “Dose 3, 5, 6, 7 = S” and the “Latency to find the platform” value (rats; 2 mg/kg i.v. daily, after 6 days with practice, max swimming time 120 second) was “above 80 seconds”. The “Learning … substance given alone” value (rats) was “inhibits spatial learning” and the “Learning … substance given alone” value (rats; listed as 3alpha-hydroxy-5alpha-preganane-20-one) was “do not learn significantly within six days”.
